In PubChem BioAssay AID493182 (Sanford-Burnham Center for Chemical Genomics, 2011):

What follows are compounds tested against Ubiquitin-conjugating enzyme E2 N (Homo sapiens) (UniProt P61088) (assay: UBC13 polyubiquitination inhibitor potency, dose response, biochemical, TR-FRET, reconfirmation (AID 493182)).
Chain of Ubiquitin-conjugating enzyme E2 N (Homo sapiens) (P61088 whole entry, looked up): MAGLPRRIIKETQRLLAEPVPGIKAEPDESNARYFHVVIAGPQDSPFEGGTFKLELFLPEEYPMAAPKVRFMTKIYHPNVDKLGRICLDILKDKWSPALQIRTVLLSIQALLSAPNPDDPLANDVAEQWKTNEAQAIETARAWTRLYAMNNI

IC50, active:
O=C(CSc1nc2ccsc2c(=O)n1Cc1ccc(C(=O)O)cc1)NCC1CCCO1 (configuration not stated) 17.3 µM
CCCCCCCCCCC[N+](C)(C)CC/C=C1/c2ccccc2Sc2ccc(Cl)cc21 4.77 µM
N#Cc1ccc(OCC(=O)NNC(=S)NC(=O)C2CC2)cc1 6.43 µM
C#CCOCCOCCOCCNc1nc(N2CCN(C(=O)C([C@@H](C)O)n3cc([C@@H](N)CCCCN)nn3)CC2)nc(N2CCN(C(=O)[C@H](CCCCN)n3cc(CN)nn3)CC2)n1 (some centres not stated) 3.71 µM
C#CCOCCOCCOCCNc1nc(N2CCN(C(=O)CCCCCCCCCCNC(=O)[C@H](CCCCN)n3cc(CCO)nn3)CC2)nc(N2CCN(C(=O)CCCCCCCCCCNC(=O)[C@H](CCCCN)n3cc(CCO)nn3)CC2)n1 4.73 µM
CCC[C@@H](CN1CCC[C@H]1CN1C(N)=NC[C@H]1CC(C)C)N1C[C@@H](Cc2ccccc2)N(CCc2ccc(Cl)c(Cl)c2)C1=N 12.6 µM
Cc1ccc(N(C(=O)c2snc(C(N)=O)c2N)C(C(=O)NCC2CCCO2)c2c[nH]c3ccccc23)cc1 (configuration not stated) 12.1 µM
